Patent publication US6869941B2, “Combination of drospirenone and an estrogen sulphamate for HRT” (Schering AG, priority 2001, dated 2005)

Tests used:
Assay type in all cases: physicochemical
[1] = Solubility of drospirenone in water and aqueous buffers; conditions: water and aqueous buffers at various pH values
[2] = Chemical stability of drospirenone under acid and alkaline conditions
[3] = In vitro dissolution, USP XXIII Paddle Method; conditions: micronized form; rapid dissolution defined as at least 70% over about 30 minutes from a 3 mg tablet in 900 ml of water at 37° C., apparatus 2 at 50 rpm

solubility [1]: sparingly soluble | stability under acid conditions ([2]; acid conditions): rearranged to an inactive isomer | stability under alkaline conditions ([2]; alkaline conditions): hydrolysed | dissolution of the active compound from the dosage unit in vitro [3]: rapid dissolution
SMILES: C[C@]12CCC(=O)C=C1[C@@H]1C[C@@H]1[C@H]1[C@@H]3[C@@H]4C[C@@H]4[C@@]4(CCC(=O)O4)[C@@]3(C)CC[C@@H]12 [Drospirenone]
